This note sets out measurements from US20250101034A1, “COMPOSITIONS USEFUL FOR MODULATING SPLICING” (SKYHAWK THERAPEUTICS, INC., priority 2021, published 2025).

For experiment [1], the system named is ATXN3 transcripts containing exon 4 (E4E5). Kind of experiment: ATXN3 quantitative splicing assay (qPCR, SK-N-MC cells). Format: cell-based. Particulars: Homo sapiens, 24 h treatment, qPCR E4E5 primers/probe, read-out: ATXN3 Potency - Splicing E4E5 IC50. As to the method:
Human neuroblastoma SK-N-MC cells were plated in 384-well plates at 20,000 cells/well. Twenty-four hours after plating, cells were treated with compounds for 24 h at appropriate concentrations ranging from 30 μM to 0.6 nM (0.3% DMSO). Treated cells were lysed in 15 μL of lysis buffer, and cDNA was synthesized using the Fast Advanced Cells-to-Ct kit. Two μL of each cDNA was used in qPCR reactions to confirm the exon 4 skipped transcripts of ATXN3. A second set of primers/probe E4E5 was used to detect the transcripts containing exon 4. The third set of primers/probe E8E9 was used to detect total gene level of ATXN3. The qPCR reactions were prepared in 384-well plates in 10 μL volume, using TaqMan™ Fast Advanced Master Mix with primers and probes shown in the table below. Reactions were run in a Quant Studio 6 qPCR instrument with default settings.
The primers and probes are listed below in Table 4.

Experiment [2] concerns total ATXN3 protein. Kind of experiment: ATXN3 total protein assay (MSD, SK-N-MC cells). Format: cell-based, Human. Particulars: 48 hours incubation, read-out: ATXN3 Potency - Protein IC50. As to the method:
Human neuroblastoma SK-N-MC cells were seeded at 10,000 cells/well in 384 well plates one day prior to compound treatment. The concentrations of compounds were tested at appropriate doses ranging from 30 μM to 0.6 nM. After incubation for 48 hours, the cells were lysed with 25 μL of lysis buffer containing protease inhibitors, and total ATXN3 protein levels were assessed by Mesoscale Discovery (MSD) assay developed with one pair of anti-ATXN3 antibodies. The capture and detect antibodies were raised in mouse and rabbit respectively. Anti-rabbit MSD-ST antibody was used for secondary antibody.
ATXN3 recombinant protein was used for standards. The readouts were captured with 35 μL of MSD read buffer and multi-array 384-well high binding plates.

In general, IC50 refers to the midpoint of a concentration-inhibition curve. As to `COc1ccc(CNc2cnnc3c(C)c(C[C@H](C)N)sc23)s1` [Compound 76, 6-[(2S)-2-aminopropyl]-N-[(5-methoxythiophen-2-yl)methyl]-7-methylthieno[3,2-c]pyridazin-4-amine], the IC50 in experiment [1] and in experiment [2] was 10 to 40 µM in each case.

As to `Cc1c(C[C@@H](N)COC2CC2)sc2c(NCc3cccs3)cnnc12` [Compound 131, 6-[(2R)-2-amino-3-cyclopropoxypropyl]-7-methyl-N-[(thiophen-2-yl)methyl]thieno[3,2-c]pyridazin-4-amine], the half-maximal inhibitory concentration (IC50) in experiment [1] was in the range of 0.501 to 5 µM; in experiment [2], 5 to 10 µM.

`C[C@H](N)Cc1sc2c(NCc3cccs3)cnnc2c1Br` [Compound 35, 6-[(2S)-2-aminopropyl]-7-bromo-N-[(thiophen-2-yl)methyl]thieno[3,2-c]pyridazin-4-amine]: the IC50 in experiment [1] and in experiment [2] was 0.101 to 0.5 µM throughout.

Take `Cc1c(C[C@@H](N)CO)sc2c(NCc3nccs3)cnnc12` [Compound 5, (2R)-2-amino-3-(7-methyl-4-{[(1,3-thiazol-2-yl)methyl]amino}thieno[3,2-c]pyridazin-6-yl)propan-1-ol]: the IC50 in experiment [1] and in experiment [2] was 10 to 40 µM throughout.

With `Cc1c(C[C@H](N)C[C@@H]2CC2(F)F)sc2c(NCc3cccs3)cnnc12` [Compound 130, 6-[(2R)-2-amino-3-[(1R)-2,2-difluorocyclopropyl]propyl]-7-methyl-N-(thiophen-2-ylmethyl)thieno[3,2-c]pyridazin-4-amine], the IC50 in experiment [1] and in experiment [2] was 0.501 to 5 µM in each case.

For `Cc1c(C[C@@H](N)CCOC(F)F)sc2c(NCc3cccs3)cnnc12` [Compound 139, 6-[(2S)-2-amino-4-(difluoromethoxy)butyl]-7-methyl-N-(thiophen-2-ylmethyl)thieno[3,2-c]pyridazin-4-amine], the IC50 in experiment [1] and in experiment [2] was 0.501 to 5 µM each time.

Regarding `C[C@H](N)Cc1sc2c(N[C@@H](C)c3cccs3)cnnc2c1Br` [Compound 112, 6-[(2S)-2-aminopropyl]-7-bromo-N-[(1S)-1-(thiophen-2-yl)ethyl]thieno[3,2-c]pyridazin-4-amine], the IC50 in experiment [1] and in experiment [2] was 10 to 40 µM each time.

As to `Cc1c(C(F)(F)[C@H](C)N)sc2c(NCc3cccs3)cnnc12` [Compound 125, 6-[(2S)-2-amino-1,1-difluoropropyl]-7-methyl-N-(thiophen-2-ylmethyl)thieno[3,2-c]pyridazin-4-amine], the IC50 in experiment [1] and in experiment [2] was 0.501 to 5 µM each time.

For the molecule `Cc1c(C[C@@H](N)CCF)sc2c(NCc3cccs3)cnnc12` [Compound 48, 6-[(2S)-2-amino-4-fluorobutyl]-7-methyl-N-(thiophen-2-ylmethyl)thieno[3,2-c]pyridazin-4-amine], the IC50 in experiment [1] and in experiment [2] was 0.501 to 5 µM in each case.

Turning to `Cc1c(CC2(N)COC2)sc2c(NCc3cccs3)cnnc12` [Compound 92, 6-[(3-aminooxetan-3-yl)methyl]-7-methyl-N-[(thiophen-2-yl)methyl]thieno[3,2-c]pyridazin-4-amine], the IC50 in experiment [1] and in experiment [2] was 10 to 40 µM in each case.

For `Brc1csc2c(NCc3cccs3)cnnc12` [Compound 63, 7-bromo-N-(thiophen-2-ylmethyl)thieno[3,2-c]pyridazin-4-amine], the IC50 in experiment [1] and in experiment [2] was 10 to 40 µM throughout.

For `Cc1c(CO)sc2c(NCc3cccs3)cnnc12` [Compound 114, (7-methyl-4-{[(thiophen-2-yl)methyl]amino}thieno[3,2-c]pyridazin-6-yl)methanol], the IC50 in experiment [1] and in experiment [2] was 10 to 40 µM in each case.

For `Cc1csc2c(NCc3nccs3)cnnc12` [Compound 12, 7-methyl-N-[(1,3-thiazol-2-yl)methyl]thieno[3,2-c]pyridazin-4-amine], the IC50 in experiment [1] and in experiment [2] was 10 to 40 µM throughout.

For `Cc1c(C[C@@H](N)C[C@H]2CC2(F)F)sc2c(NCc3cccs3)cnnc12` [Compound 127, 6-[(2S)-2-amino-3-[(1S)-2,2-difluorocyclopropyl]propyl]-7-methyl-N-(thiophen-2-ylmethyl)thieno[3,2-c]pyridazin-4-amine], the IC50 in experiment [1] and in experiment [2] was 10 to 40 µM in each case.

Turning to `C[C@H](N)Cc1cc2nncc(NCc3cccs3)c2s1` [Compound 39, 6-[(2S)-2-aminopropyl]-N-[(thiophen-2-yl)methyl]thieno[3,2-c]pyridazin-4-amine], the IC50 in experiment [1] and in experiment [2] was 0.501 to 5 µM each time.

As to `C[C@H](N)Cc1sc2c(N[C@H](C)c3cccs3)cnnc2c1Br` [Compound 113, 6-[(2S)-2-aminopropyl]-7-bromo-N-[(1R)-1-(thiophen-2-yl)ethyl]thieno[3,2-c]pyridazin-4-amine], the half-maximal inhibitory concentration (IC50) in experiment [1] and in experiment [2] was 10 to 40 µM in each case.

For the molecule `Cc1c(CC(N)CF)sc2c(NCc3cccs3)cnnc12` (stereo not drawn) [Compound 141, 6-(2-amino-3-fluoropropyl)-7-methyl-N-[(thiophen-2-yl)methyl]thieno[3,2-c]pyridazin-4-amine], the IC50 in experiment [1] and in experiment [2] was 0.501 to 5 µM each time.

Take `C=C(C)c1sc2c(NCc3cccs3)cnnc2c1C` [Compound 37, 7-methyl-6-(prop-1-en-2-yl)-N-(thiophen-2-ylmethyl)thieno[3,2-c]pyridazin-4-amine]: the IC50 in experiment [1] and in experiment [2] was 10 to 40 µM in each case.

With `Cc1c(C[C@@H](N)CC2CC2)sc2c(NCc3cccs3)cnnc12` [Compound 68, 6-[(2S)-2-amino-3-cyclopropylpropyl]-7-methyl-N-[(thiophen-2-yl)methyl]thieno[3,2-c]pyridazin-4-amine], the IC50 in experiment [1] and in experiment [2] was 0.501 to 5 µM each time.

On to `CC#Cc1c(C[C@H](C)N)sc2c(NCc3cccs3)cnnc12` [Compound 107, 6-[(2S)-2-aminopropyl]-7-(prop-1-yn-1-yl)-N-[(thiophen-2-yl)methyl]thieno[3,2-c]pyridazin-4-amine], for which the IC50 in experiment [1] and in experiment [2] was 0.101 to 0.5 µM throughout.

As for `Cc1c(C[C@H](C)N)sc2c(NCn3cccn3)cnnc12` [Compound 15, 6-[(2S)-2-aminopropyl]-7-methyl-N-[(1H-pyrazol-1-yl)methyl]thieno[3,2-c]pyridazin-4-amine], the IC50 in experiment [1] and in experiment [2] was 0.501 to 5 µM throughout.

Consider `Cc1c(C[C@@H](N)C[S+](C)[O-])sc2c(NCc3ccco3)cnnc12` (stereo partly drawn) [Compound 33, 6-[(2R)-2-amino-3-methanesulfinylpropyl]-N-[(furan-2-yl)methyl]-7-methylthieno[3,2-c]pyridazin-4-amine], for which the IC50 in experiment [1] and in experiment [2] was 10 to 40 µM throughout.

In the case of `Cc1c(C(F)[C@H](C)N)sc2c(NCc3cccs3)cnnc12` (stereo partly drawn) [Compound 55, 6-[(2S)-2-amino-1-fluoropropyl]-7-methyl-N-[(thiophen-2-yl)methyl]thieno[3,2-c]pyridazin-4-amine], the IC50 in experiment [1] and in experiment [2] was 0.501 to 5 µM throughout.

On to `Cc1c(C[C@@H](N)CCO)sc2c(NCc3cccs3)cnnc12` [Compound 61, (3S)-3-amino-4-(7-methyl-4-{[(thiophen-2-yl)methyl]amino}thieno[3,2-c]pyridazin-6-yl)butan-1-ol], for which the IC50 in experiment [1] and in experiment [2] was 0.501 to 5 µM each time.

On to `Cc1c(C[C@@H](N)C2CC2)sc2c(NCc3ccco3)cnnc12` [Compound 64, 6-[(2R)-2-amino-2-cyclopropylethyl]-N-[(furan-2-yl)methyl]-7-methylthieno[3,2-c]pyridazin-4-amine], for which the IC50 in experiment [1] and in experiment [2] was 5 to 10 µM in each case.

As for `C[C@H](F)[C@H](N)Cc1sc2c(NCc3cccs3)cnnc2c1Br` [Compound 135, 6-[(2R,3S)-2-amino-3-fluorobutyl]-7-bromo-N-[(thiophen-2-yl)methyl]thieno[3,2-c]pyridazin-4-amine], the IC50 in experiment [1] and in experiment [2] was 0.101 to 0.5 µM in each case.

As to `CCc1csc2c(NCc3cccs3)cnnc12` [Compound 40, 7-ethyl-N-[(thiophen-2-yl)methyl]thieno[3,2-c]pyridazin-4-amine], the IC50 in experiment [1] and in experiment [2] was 10 to 40 µM throughout.

Turning to `C[C@H](N)Cc1sc2c(NCc3cccs3)cnnc2c1Cl` [Compound 36, 6-[(2S)-2-aminopropyl]-7-chloro-N-[(thiophen-2-yl)methyl]thieno[3,2-c]pyridazin-4-amine], the IC50 in experiment [1] and in experiment [2] was 0.101 to 0.5 µM in each case.

Consider `C[C@H](N)Cc1sc2c(NCc3ccco3)cnnc2c1Br` [Compound 100, 6-[(2S)-2-aminopropyl]-7-bromo-N-[(furan-2-y1)methyl]thieno[3,2-c]pyridazin-4-amine], for which the IC50 in experiment [1] and in experiment [2] was 0.101 to 0.5 µM in each case.

For the molecule `Cc1c(C[C@@H](N)COC(F)F)sc2c(NCc3cccs3)cnnc12` [Compound 133, 6-[(2R)-2-amino-3-(difluoromethoxy)propyl]-7-methyl-N-[(thiophen-2-y1)methyl]thieno[3,2-c]pyridazin-4-amine], the IC50 in experiment [1] and in experiment [2] was 0.501 to 5 µM in each case.
